Test results as given in PubChem BioAssay (NCI).
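Growth conditions: 96-well plates. Treatment: test compound, 48 hours, 5 concentrations. Analysis: linear interpolation between bracketing concentrations; unreached endpoints set to highest concentration. GI50: concentration for 50% inhibition of growth. TGI: total growth inhibition.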

Legend:
Test in all cases: NCI anticancer screen, dose series, 48 h
A498 renal = tested on: A498 renal
ACHN renal = tested on: ACHN renal
EKVX NSCLC = tested on: EKVX NSCLC
HCC-2998 colon = tested on: HCC-2998 colon
HL-60(TB) leukemia = tested on: HL-60(TB) leukemia
HOP-62 NSCLC = tested on: HOP-62 NSCLC
SW-620 colon = tested on: SW-620 colon
UACC-257 melanoma = tested on: UACC-257 melanoma
UACC-62 melanoma = tested on: UACC-62 melanoma
HS 578T breast = tested on: HS 578T breast

Row | SMILES | TGI (A498 renal) [µM] | TGI (ACHN renal) [µM] | TGI (EKVX NSCLC) [µM] | TGI (HCC-2998 colon) [µM] | TGI (HL-60(TB) leukemia) [µM] | TGI (HOP-62 NSCLC) [µM] | TGI (SW-620 colon) [µM] | TGI (UACC-257 melanoma) [µM] | TGI (UACC-62 melanoma) [µM] | GI50 (A498 renal) [µM] | GI50 (ACHN renal) [µM] | GI50 (HCC-2998 colon) [µM] | GI50 (HL-60(TB) leukemia) [µM] | GI50 (HOP-62 NSCLC) [µM] | GI50 (HS 578T breast) [µM] | TGI (HS 578T breast) [µM] | GI50 (SW-620 colon) [µM] | GI50 (UACC-257 melanoma) [µM] | GI50 (UACC-62 melanoma) [µM] | GI50 (EKVX NSCLC) [µM]
1 | COC(=O)NC(=Nc1ccc(Oc2ccccc2)cc1NC=O)NC(=O)OC | 1.08 | > 100 | > 100 | 5.27 | 0.707 | > 100 | > 100 | > 100 | > 100 |  |  |  |  |  |  |  |  |  |  | 
2 | CCCC[n+]1c(/C=C\c2c(OC)cc(OC)cc2OC)ccc2ccccc21 | 2.87 | 11.8 |  | 7.83 | 1.39 | 10.5 | 10 | 2.79 | 2.34 | 0.157 | 3.01 | 0.946 | 0.241 | 2.58 | 1.28 | 8.64 | 0.814 | 0.38 | 0.777 | 
3 | COc1ccc2c(c1)[n+]([O-])c(-c1ccc(Br)cc1)c(N)[n+]2[O-] | > 100 | > 100 | > 100 |  | > 100 | > 100 | > 100 | > 100 |  |  |  |  |  |  |  |  |  |  |  | 
4 | C[C@]12CCC[C@H](O)[C@H]1C[C@H](CO)CC2 | > 100 | > 100 |  | > 100 | > 100 | > 100 | > 100 | > 100 | > 100 |  |  |  |  |  |  |  |  |  |  | 
5 | C/C=C(/CCC1NCCC2c3ccccc3NC12)[Si](C)(C)C (stereo not given) |  | 27.2 | 27.4 | 3.61 | 4.36 | 28.6 | 9.68 | 14.2 | 26.4 |  |  |  |  |  |  |  |  |  |  | 
6 | Cc1cc(Cl)ccc1NC(=O)CCCC(=O)C1CCC/C1=N\NC(=O)CC#N (stereo not given) | > 100 | > 100 | > 100 |  | > 100 |  | > 100 | > 100 | > 100 |  |  |  |  |  |  |  |  |  |  | 
7 | C1COCCOCCOCCOCCOCCO1.[Cl][Sn]([Cl])([c]1ccccc1)[c]1ccccc1 | 11.9 | 22.8 | 19 | 18.9 | 7.55 | 35 | 3.28 | 4.63 | 4.12 | 3.12 | 10.9 | 6.06 | 2.64 | 20.3 |  |  | 1.65 | 2.08 | 1.86 | 6.77
8 | CCOC(=O)C1=C(C)N(Cc2ccccc2)C(=O)C1CC#N (stereo not given) | > 100 | > 100 | > 100 | > 100 | 94.7 | > 100 | > 100 | > 100 | > 100 |  |  |  |  |  |  |  |  |  |  | 
9 | Cn1cc(-c2csc(-c3cn(CCCCN4CCCCC4)c4ccc(F)cc34)n2)c2cccnc21 | 3.28 |  |  | 3.08 |  | 31.1 | 3.44 | 3.25 |  | 1.6 |  | 1.59 |  | 14 | 12.4 | 53.8 | 1.83 | 1.7 |  | 
10 | O=S(=O)(c1ccc(Br)cc1)N1CCN(S(=O)(=O)c2ccc(Br)cc2)CC1 | > 100 | > 100 | > 100 |  | > 100 | > 100 | > 100 | > 100 | > 100 |  |  |  |  |  |  | > 100 |  |  |  | 
11 | NC(=O)c1ncn(CCN2CCN(C(=O)NCCCCCCNC(=O)N3CCN(CCn4cnc(C(N)=O)c4N)CC3)CC2)c1N |  | > 100 | > 100 | > 100 | > 100 | > 100 | > 100 | > 100 | > 100 |  |  |  |  |  |  |  |  |  |  | 
12 | O=C(/C=C/c1ccccc1Cl)c1cccc2ccccc12 | 27.5 | 30.4 | 25.4 | 27.9 | 37.7 | 28.9 | 4.06 | 32 | 28.6 |  |  |  |  |  |  |  |  |  |  | 
13 | CCCCCc1cc[n+](CC(=O)c2ccc([N+](=O)[O-])cc2)cc1 | 24.6 | 45.1 | 17.5 | 17.6 |  | 28.3 | > 100 | 7.08 | 24.1 | 10.4 | 11 | 4.94 |  | 3.94 | 10.2 | 36.5 | 3.22 | 2.28 | 10.8 | 3.5
14 | CC(=O)c1ccc(Nc2nc(Nc3ccc(F)cc3)nc(Nc3ccc(F)cc3)n2)cc1 | 18.3 | 45.1 | 57.8 | > 100 |  | 32.5 | 88 | > 100 | > 100 | 4.69 | 14.7 | 9.95 |  | 13.7 | 4.85 | 20.2 | 13.4 | 14.3 | 28.9 | 12.3
15 | O=C(NNc1ccc(F)cc1)C1CCC(CNS(=O)(=O)c2ccc(Cl)c(Cl)c2)CC1 (stereo not given) |  | 13.4 | > 50 |  | 9.57 | > 50 | > 50 | 28.5 | 23.4 |  | 4.08 |  | 1.82 | 15.9 | 10.5 | 42.4 | 9.03 | 7.91 | 1.98 | 7.98
16 | CC(=O)[CH-]C(=O)c1ccccc1.CC(=O)[CH-]C(=O)c1ccccc1.CC[C@H](/C=C/C(C)[C@H]1CCC2[C@@H]3CC=C4C[C@@H]([O-])CC[C@]4(C)C3CC[C@@]21C)C(C)C.CC[O-].[Ti+4] (stereo not given in full) | > 100 | > 100 | > 100 | > 100 | > 100 | > 100 | > 100 | > 100 | > 100 | > 100 | 16.2 | > 100 | > 100 | > 100 |  |  | > 100 | > 100 | > 100 | > 100
17 | Cc1cc(=O)n2c3c(c4c(cc13)c(CO)cc(=O)n4C)OC2 | 72.5 | 63.5 | > 100 | 44.8 |  | 40.2 | > 100 | > 100 | 25.9 |  |  |  |  |  |  |  |  |  |  | 
